Assays:
[1] = target: T1, human ALK5 (ALK5 T204D kinase domain) (Homo sapiens, UniProt P36897, T204D); assay: ALK5 kinase activity, radiolabelled phosphate [33P] incorporation into casein; type: biochemical; conditions: casein substrate, 1 μM unlabelled ATP
T1 construct: The kinase domain of human ALK5 (amino acids 200-503) is fused to an N-terminal histidine tag; made in house; host or cells: insect cells (baculovirus)
T1 sequence (P36897 200-503 T204D): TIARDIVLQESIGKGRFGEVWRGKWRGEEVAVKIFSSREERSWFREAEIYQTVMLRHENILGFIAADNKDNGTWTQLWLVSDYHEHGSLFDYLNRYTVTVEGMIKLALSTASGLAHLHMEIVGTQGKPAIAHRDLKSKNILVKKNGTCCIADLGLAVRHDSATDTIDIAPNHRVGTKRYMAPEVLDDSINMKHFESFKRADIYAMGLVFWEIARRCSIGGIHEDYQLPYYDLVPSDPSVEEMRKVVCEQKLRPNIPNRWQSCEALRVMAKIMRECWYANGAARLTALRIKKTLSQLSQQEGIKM
Method: The kinase activity of ALK5 is assessed by measuring radiolabelled phosphate [33P] incorporation in to the generic substrate, casein. The kinase domain of human ALK5 (amino acids 200-503) is fused to an N-terminal histidine tag. The kinase activity of ALK5 is rendered constitutive via point mutation at amino acid 204 (threonine to aspartate modification, ALK5 T204D) and the kinase construct is engineered to be expressed from a baculovirus expression construct in insect cells. The purified, recombinantly-expressed histidine-tagged ALK5 T204D protein is dissolved at 5.4 mg/ml in 50 mM Tris-HCl pH 8.0, 150 mM NaCl, 5 mM DTT. ALK5 T204D is dissolved to 2.5 μg/ml in assay buffer (Assay buffer: 20 mM Tris-HCl pH 7.4, 10 mM MgCl2, 2 mM MnCl2) on the day of use.
Test compounds and reference compounds are dissolved in assay buffer without DTT containing 5% (v/v) DMSO. Stock solutions of test and reference compounds are diluted in assay buffer with DTT (1.25 mM) containing 4.5% (v/v) DMSO. 10 μl of test or reference compound are added to the corresponding wells of 96 well U-bottomed plate. Total enzyme activity is determined by measuring ALK5 T204D activity in the absence of ALK5 kinase inhibitor reference compounds. Non-specific binding (NSB) is determined by measuring the activity of ALK5 T204D in the presence of ALK5 kinase inhibitor reference compounds. 10 μl of dephosphorylated casein stock solution (dephosphorylated casein is dissolved in ddH2O at 20 mg/ml) is added per well (200 μg/well final assay concentration). 20 μl of ALK5 T204D (2.5 μg/ml solution) is added per well (50 ng/well final assay concentration). The plates are left to incubate at room temperature for 10 minutes.
10 μl of ATP mix is added to the well to initiate the reaction (0.66 nM [^33P]ATP/1 μM unlabelled ATP/well final assay concentration). The ATP mix is prepared as follows, unlabelled ATP (3 mM) is dissolved in ddH2O and pH adjusted to 7.4. The stock concentration of [^33P]ATP is 10 μCi/μl. The corresponding volume of [^33P]ATP is added to unlabelled ATP solution such that the final assay concentration per well is 0.1 μCi. Following addition of the ATP mix, the plates are incubated at room temperature for 50 minutes. The kinase reaction is terminated by the addition of 50 μL Stop Buffer (20 mM Tris-HCl pH 7.4, 10 mM EDTA).
75 μl/well from the reaction plate is transferred to a Multiscreen-IP plate (MultiScreen-IP plates are prepared by added 50 μL of 70% (v/v) ethanol per well and incubated for 5 minutes at room temperature. The ethanol is removed by aspiration via a MultiScreen HTS Vacuum Manifold unit (Millipore, Cat no: MSVMHT500). The plates are washed twice by adding 200 μl/well ddH2O). The MultiScreen-IP plate is incubated at room temperature for 30 minutes to allowing binding of casein to the plate. The MultiScreen-IP plates are washed three times by adding 200 μl/well 100 mM phosphoric acid solution and the gasket is carefully removed from the back of the MultiScreen-IP plate and the plate dried in the oven for 30 minutes. The MultiScreen-IP plate is backsealed, 50 μL of Microscint™ 20 is added, then the plates are topsealed and radiolabelled casein detected and quantified on a TopCount™ plate-reader using the ^33P scintillation protocol.

[2] = tested on: dimethylnitrosamine induced liver fibrosis; conditions: rat, cited from earlier work

SMILES | IC50 [1] | further results
CNC(=O)c1cccc(-c2cnn3c(-c4ccnc(-c5ccccc5)c4)cnc3c2)c1 [Example 1, N-Methyl-3-[3-(2-phenyl-pyridin-4-yl)-imidazo[1,2-b]pyridazin-7-yl]-benzamide] | 83 nM | –
CNC(=O)c1cccc(-c2cnn3c(-c4ccnc(-c5ccc(F)cc5)c4)cnc3c2)c1 [Example 6, 3-{3-[2-(4-Fluoro-phenyl)-pyridin-4-yl]-imidazo[1,2-b]pyridazin-7-yl}-N-methyl-benzamide] | 139 nM | –
Oc1cccc(-c2cnn3c(-c4cccc(-n5cccn5)c4)cnc3c2)c1 [Example 8, 3-[3-(3-Pyrazol-1-yl-phenyl)-imidazo[1,2-b]pyridazin-7-yl]-phenol] | 24 nM | –
c1ccc(-c2cc(-c3cnc4cc(-c5ccncc5)cnn34)ccn2)cc1 [Example 10, 3-(2-Phenyl-pyridin-4-yl)-7-pyridin-4-yl-imidazo[1,2-b]pyridazine] | 28 nM | –
CS(=O)(=O)Nc1cccc(-c2cnn3c(-c4ccnc(-c5ccoc5)c4)cnc3c2)c1 [Example 14, N-{3-[3-(2-Furan-3-yl-pyridin-4-yl)-imidazo[1,2-b]pyridazin-7-yl]-phenyl}-methanesulfonamide] | 42 nM | –
c1cncc(-c2cnn3c(-c4cccc(-n5cccn5)c4)cnc3c2)c1 [Example 18, 3-(3-Pyrazol-1-yl-phenyl)-7-pyridin-3-yl-imidazo[1,2-b]pyridazine] | 47 nM | –
COc1cc(-c2cnc3cc(-c4cccnc4)cnn23)ccc1O [Example 20, 2-Methoxy-4-(7-pyridin-3-yl-imidazo[1,2-b]pyridazin-3-yl)-phenol] | 203 nM | –
NC(=O)c1cccc(-c2cnc3cc(-c4cccc(F)c4)cnn23)c1 [Example 24, 3-[7-(3-Fluoro-phenyl)-imidazo[1,2-b]pyridazin-3-yl]-benzamide] | 83 nM | –
CCOC(=O)c1ccc(-c2cnn3c(-c4cccc(-n5cccn5)c4)cnc3c2)cc1 [Example 34, 4-[3-(3-Pyrazol-1-yl-phenyl)-imidazo[1,2-b]pyridazin-7-yl]-benzoic acid ethyl ester] | 141 nM | –
CCCCNC(=O)c1cccc(-c2cnn3c(-c4ccnc(-c5ccccc5)c4)cnc3c2)c1 [Example 59, N-Butyl-3-[3-(2-Phenyl-pyridin-4-yl)-imidazo[1,2-b]pyridazin-7-yl]-benzamide] | 236 nM | –
c1ccc(-c2cc(-c3cn[nH]c3-c3ccccn3)ccn2)cc1 [GW6604] | – | side effects ([2]; during the 3 weeks treatment): no obvious side effects; inhibited extracellular matrix deposition ([2]; given therapeutically): 60%; prevented death rate ([2]; given therapeutically): 40%

Source: US8143253B2, “Organic compounds” (Novartis AG, priority 2007, dated 2012)
